Reference: US6670367B1, “Azinyloxy, and phenoxy-diaryl-carboxylic acid derivatives, their preparation and use as mixed ETA/ETB endothelin receptor antagonists” (Abbott GmbH & Co., KG, priority 1996, dated 2003)

Experiments:
[1] = molecular target: T1, human ETA receptor (Homo sapiens, UniProt P25101); assay: ETA receptor binding assay (125I-ET1, membranes of receptor-expressing CHO cells); details: cloned human ETA receptor, CHO cell membranes, 25 pM 125I-ET1, 25° C., 30 min
T1 construct: expressed in transfected cells; host or cells: CHO cells (membrane preparation)
T1 sequence (P25101 21-427): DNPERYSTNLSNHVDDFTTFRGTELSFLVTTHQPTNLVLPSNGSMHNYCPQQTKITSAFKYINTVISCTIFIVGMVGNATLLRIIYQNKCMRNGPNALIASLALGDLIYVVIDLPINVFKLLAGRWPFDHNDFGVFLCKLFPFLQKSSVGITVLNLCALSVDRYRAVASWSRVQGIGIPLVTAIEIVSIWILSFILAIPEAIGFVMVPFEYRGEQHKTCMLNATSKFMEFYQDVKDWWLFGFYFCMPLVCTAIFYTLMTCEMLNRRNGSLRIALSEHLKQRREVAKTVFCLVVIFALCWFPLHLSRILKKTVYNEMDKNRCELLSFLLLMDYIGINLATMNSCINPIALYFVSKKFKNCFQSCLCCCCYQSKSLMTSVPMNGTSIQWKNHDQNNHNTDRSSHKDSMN
Experimental: (§1) Cloned human ETA or ETB receptor-expressing CHO cells were employed for binding studies.
(§2) The ETA or ETB receptor-expressing CHO cells were grown in DMEM NUT MIX F12 medium (Gibco, No. 21331-020) with 10% fetal calf serum (PAA Laboratories GmbH, Linz, No. A15-022), 1 mM glutamine (Gibco No. 25030-024), 100 U/ml penicillin and 100 μg/ml streptomycin (Gibco, Sigma No. P-0781). After 48 hours, the cells were washed with PBS and incubated with 0.05% trypsin-containing PBS at 37° C. for 5 minutes. Neutralization with medium was then carried out, and the cells were collected by centrifugation at 300×g.
(§3) For the membrane preparation, the cells were adjusted to a concentration of 10^8 cells/ml of buffer (50 mM tris.HCL buffer, pH 7.4) and then disintegrated by ultrasound (Branson Sonifier 250, 40-70 seconds/constant/output 20).
(§4) For the ETA and ETB receptor binding assays, the membranes were suspended in incubation buffer (50 mM tris-HCl, pH 7,4 with 5 mM MnCl2, 40 μg/ml bacitracin and 0.2% BSA) at a concentration of 50 μg of protein per assay mixture, and incubated with 25 pM ^125I-ET1 (ETA receptor assay) or 25 pM ^125I-ET3 (ETB receptor assay) in the presence and absence of test substance at 25° C. The nonspecific binding was determined with 10^−7 M ET1. Filtration was carried out after 30 min through GF/B glassfiber filters (Whatman, England) in a Skatron cell collector (Skatron, Lier, Norway) to separate free and bound radio ligands, and the filters were washed with ice-cold tris-HCl buffer, pH 7.4 with 0.2% BSA. The radioactivity collected on the filters was quantified using a
(§5) Packard 2200 CA liquid scintillation counter.

[2] = molecular target: T2, human ETB receptor (Homo sapiens, UniProt P24530); assay: ETB receptor binding assay (125I-ET3, membranes of receptor-expressing CHO cells); details: cloned human ETB receptor, CHO cell membranes, 25 pM 125I-ET3, 25° C., 30 min
T2 construct: expressed in transfected cells; host or cells: CHO cells (membrane preparation)
T2 sequence (P24530 27-442): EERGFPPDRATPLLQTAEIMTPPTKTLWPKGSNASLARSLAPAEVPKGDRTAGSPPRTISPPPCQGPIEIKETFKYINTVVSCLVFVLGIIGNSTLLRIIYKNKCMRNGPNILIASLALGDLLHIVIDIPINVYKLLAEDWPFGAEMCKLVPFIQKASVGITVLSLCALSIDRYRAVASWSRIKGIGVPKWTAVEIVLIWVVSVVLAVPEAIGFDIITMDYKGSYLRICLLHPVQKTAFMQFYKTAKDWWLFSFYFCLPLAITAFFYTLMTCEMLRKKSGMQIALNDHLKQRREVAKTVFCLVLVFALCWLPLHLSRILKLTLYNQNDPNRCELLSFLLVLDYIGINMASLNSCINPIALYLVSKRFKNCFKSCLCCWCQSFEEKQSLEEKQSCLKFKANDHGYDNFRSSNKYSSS
Experimental: as §1, §2, §3, §4, §5

Row | melting point | Ki [1] | Ki [2] | SMILES
1 | 155 °C (dec.) |  |  | COc1cc(C)nc(OC(C(=O)O)C(OCCc2ccccc2)(c2ccccc2)c2ccccc2)n1 (stereo not shown) [Compound I-719, 2-(4-Methoxy-6-methyl-2-pyrimidinyloxy)-3-(2-phenylethoxy)-3,3-diphenylpropionic Acid]
2 | 172 to 178 °C |  |  | Cc1cc(C)nc(OC(C(=O)O)C(OCCCc2ccccc2Cl)(c2ccccc2)c2ccccc2)n1 (stereo not shown) [Compound I-384, 2-(4,6-Dimethyl-2-pyrimidinyloxy)-3-(3-(2-chlorophenyl)propoxy)-3,3-diphenylpropionic Acid]
3 |  | 65 nM | 140 nM | COc1ccc(CCOC(c2ccccc2)(c2ccccc2)[C@@H](Oc2nc(C)cc(C)n2)C(=O)O)cc1OC [I-445 (R) enantiomer]
4 |  | 3 nM | 23 nM | COc1ccc(CCOC(c2ccccc2)(c2ccccc2)C(Oc2nc(C)cc(OC)n2)C(=O)O)cc1 (stereo not shown) [Compound I-622, 2-(4-Methoxy-6-methyl-2-pyrimidinyloxy)-3-(2-(4-methoxyphenyl)ethoxy)-3,3-diphenylpropionic Acid]
5 | 115 to 119 °C |  |  | CCCOc1ccc(CCOC(c2ccccc2)(c2ccccc2)C(Oc2nc(C)cc(OC)n2)C(=O)O)cc1 (stereo not shown) [Compound I-69, 2-(4-Methoxy-6-methyl-2-pyrimidinyloxy)-3-(2-(4-propoxyphenyl)ethoxy)-3,3-diphenylpropionic Acid]
6 |  | 575 nM | 460 nM | COc1ccccc1CCOC(c1ccccc1)(c1ccccc1)C(Oc1nc(OC)c2c(n1)OCC2)C(=O)O (stereo not shown) [Compound I-140]
7 |  | 2 nM | 14 nM | COc1cc(C)nc(OC(C(=O)O)C(OCCc2ccc(OC)c(OC)c2)(c2ccccc2)c2ccccc2)n1 (stereo not shown) [Compound I-482, 2-(4-Methoxy-6-methyl-2-pyrimidinyloxy)-3-(2-(3,4-dimethoxyphenyl)ethoxy)-3,3-diphenylpropionic Acid]
8 | 93 to 98 °C |  |  | COc1cc(C)nc(OC(C(=O)O)C(OCCc2ccc(Cl)cc2)(c2ccccc2)c2ccccc2)n1 (stereo not shown) [Compound I-746, 2-(4-Methoxy-6-methyl-2-pyrimidinyloxy)-3-(2-(4-chlorophenyl)ethoxy)-3,3-diphenylpropionic Acid]
9 |  | 35 nM | 35 nM | CCc1ccc(C(OCCc2ccc(OC)c(OC)c2)(c2ccc(CC)cc2)C(Oc2nc(C)cc(OC)n2)C(=O)O)cc1 (stereo not shown) [Compound I-116, 2-(4-Methoxy-6-methyl-2-pyrimidinyloxy)-3-(2-(3,4-dimethoxyphenyl)ethoxy)-3,3-di(4-ethylphenyl)propionic Acid]
10 |  | 4 nM | 29 nM | CCOc1ccc(CCOC(c2ccccc2)(c2ccccc2)C(Oc2nc(C)cc(C)n2)C(=O)O)cc1OC (stereo not shown) [Compound I-146, 2-(4,6-Dimethyl-2-pyrimidinyloxy)-3-(2-(4-ethoxy-3-methoxyphenyl)ethoxy)-3,3-diphenylpropionic Acid]
11 |  | 60 nM | 185 nM | Cc1cc(C)nc(OC(C(=O)O)C(OCCc2ccc(C(C)C)cc2)(c2ccccc2)c2ccccc2)n1 (stereo not shown) [Compound I-672, 2-(4,6-Dimethyl-2-pyrimidinyloxy)-3-(2-(4-i-propylphenyl)ethoxy)-3,3-diphenylpropionic Acid]
12 | 165 to 170 °C |  |  | COc1ccc(CCCOC(c2ccccc2)(c2ccccc2)C(Oc2nc(C)cc(C)n2)C(=O)O)cc1 (stereo not shown) [Compound I-555, 2-(4,6-Dimethyl-2-pyrimidinyloxy)-3-(3-(4-methoxyphenyl)propoxy)-3,3-diphenylpropionic Acid]
13 | 160 to 165 °C |  |  | COc1ccc(CCCOC(c2ccccc2)(c2ccccc2)C(Oc2nc(C)cc(OC)n2)C(=O)O)cc1 (stereo not shown) [Compound I-554, 2-(4-Methoxy-6-methyl-2-pyrimidinyloxy)-3-(3-(4-methoxyphenyl)propoxy)-3,3-diphenylpropionic Acid]
14 | 171 to 174 °C |  |  | COc1cc(C)nc(OC(C(=O)O)C(O/C=C/Cc2ccccc2)(c2ccccc2)c2ccccc2)n1 (stereo not shown) [Compound I-44, 2-(4-Methoxy-6-methyl-2-pyrimidinyloxy)-3-(3-phenyl-(2E)-propenoxy)-3,3-diphenylpropionic Acid]
15 |  | 132 nM | 82 nM | COc1ccc(CCOC(c2ccc(C)cc2)(c2ccc(C)cc2)C(Oc2nc(OC)c3c(n2)OCC3)C(=O)O)cc1 (stereo not shown) [Compound I-355]
16 |  | 31 nM | 135 nM | COc1cc(C)nc(OC(C(=O)O)C(OCCCc2ccccc2)(c2ccccc2)c2ccccc2)n1 (stereo not shown) [Compound I-499, 2-(4-Methoxy-6-methyl-2-pyrimidinyloxy)-3-(3-phenylpropoxy)-3,3-diphenylpropionic Acid]
17 | 130 to 133 °C |  |  | CCc1ccc(C(OCCc2ccc(OC)cc2)(c2ccc(CC)cc2)C(Oc2nc(C)cc(C)n2)C(=O)O)cc1 (stereo not shown) [Compound I-148, 2-(4,6-Dimethyl-2-pyrimidinyloxy)-3-(2-(4-methoxyphenyl)ethoxy)-3,3-di(4-ethylphenyl)propionic Acid]
18 | 128 to 133 °C |  |  | Cc1cc(C)nc(OC(C(=O)O)C(O/C=C/Cc2ccccc2)(c2ccccc2)c2ccccc2)n1 (stereo not shown) [Compound I-27, 2-(4,6-Dimethyl-2-pyrimidinyloxy)-3-(3-phenyl-(2E)-propenoxy)-3,3-diphenylpropionic Acid]
19 | 145 to 147 °C |  |  | COc1cc(C)nc(OC(C(=O)O)C(OCCc2ccc(C)cc2)(c2ccccc2)c2ccccc2)n1 (stereo not shown) [Compound I-465, 2-(4-Methoxy-6-methyl-2-pyrimidinyloxy)-3-(2-(4-methylphenyl)ethoxy)-3,3-diphenylpropionic Acid]
20 | 130 to 133 °C |  |  | Cc1cc(C)nc(OC(C(=O)O)C(OCCc2ccccc2)(c2ccccc2)c2ccccc2)n1 (stereo not shown) [Compound I-720, 2-(4,6-Dimethyl-2-pyrimidinyloxy)-3-(2-phenylethoxy)-3,3-diphenyl propionic Acid]
21 | 85 to 90 °C |  |  | COc1cc(C)nc(OC(C(=O)O)C(OCCc2ccccc2OC)(c2ccc(Cl)cc2)c2ccc(Cl)cc2)n1 (stereo not shown) [Compound I-487, 2-(4-Methoxy-6-methyl-2-pyrimidinyloxy)-3-(2-(2-methoxyphenyl)ethoxy)-3,3-di(4-chlorophenyl)propionic Acid]
22 | 150 to 155 °C |  |  | CCc1ccc(C(OCCc2ccc(OC)cc2)(c2ccc(CC)cc2)C(Oc2nc(C)cc(OC)n2)C(=O)O)cc1 (stereo not shown) [Compound I-147, 2-(4-Methoxy-6-methyl-2-pyrimidinyloxy)-3-(2-(4-methoxyphenyl)ethoxy)-3,3-di(4-ethylphenyl)propionic Acid]
23 | 90 to 100 °C |  |  | COc1cc(C)nc(OC(C(=O)O)C(OCCc2ccc(C)cc2)(c2ccc(Cl)cc2)c2ccc(Cl)cc2)n1 (stereo not shown) [Compound I-710, 2-(4-Methoxy-6-methyl-2-pyrimidinyloxy)-3-(2-(4-methylphenyl)ethoxy)-3,3-di(4-chlorophenyl)propionic Acid]

Row | SMILES | melting point | Ki [1] | Ki [2]
24 | CCCCOc1ccc(CCOC(c2ccccc2)(c2ccccc2)C(Oc2nc(C)cc(C)n2)C(=O)O)cc1 (stereo not shown) [Compound I-70, 2-(4,6-Dimethyl-2-pyrimidinyloxy)-3-(2-(4-butoxyphenyl)ethoxy)-3,3-diphenylpropionic Acid] | 122 to 125 °C |  | 
25 | CCCCOc1ccc(CCOC(c2ccccc2)(c2ccccc2)C(Oc2nc(C)cc(OC)n2)C(=O)O)cc1 (stereo not shown) [Compound I-71, 2-(4-Methoxy-6-methyl-2-pyrimidinyloxy)-3-(2-(4-butoxyphenyl)ethoxy)-3,3-diphenylpropionic Acid] | 118 to 122 °C |  | 
